Assay results from patent publication US8597646B2, “Methods and compositons featuring TGF-beta antagonists for the treatment of marfan syndrome and associated disorders” (The Johns Hopkins University, priority 2005, dated 2013).
Entries after “also recorded” stand apart in the source; their conditions may differ.

Key:
[1] = system: young patients with an aggressive rate of aortic growth; test: Losartan in young patients with aggressive rate of aortic growth despite standard therapy; format: in vivo, human; conditions: n=8, despite β-adrenergic/ACE blockade, monopotassium salt
Method: (§1) Markers of TGFβ antagonism have included reduced plasma levels of free TGFβ, reduced intracellular initiation of the TGFβ signaling cascade, and reduced tissue expression of TGFβ-responsive genes. […] Three independent measurements of the aortic root were made from the long axis echo view in systole at each of 3 time points (baseline, 2 and 4 months of treatment; FIG. 8A). All analyses were performed blinded to genotype and treatment arm. […] This represents the first therapeutic strategy for MFS that derives from interrogation of disease pathogenesis and the first possibility for primary prevention of disease manifestations.

Fbn1C1039G/+ mice [2] = test: Lung distal airspace caliber (mean linear intercept) in Fbn1C1039G/+ mice treated postnatally with losartan; format: in vivo, mouse; conditions: for Distal airspace caliber / alveolar septation, in words: postnatal losartan, monopotassium salt
Description: This abnormality correlated with increased TGF-β signaling and was prevented by prenatal administration of TGF-β NAb.

Fbn1C1039G/+ mice [3] = test: Prenatal treatment with losartan and propranolol, aorta of Fbn1C1039G/+ mice; format: in vivo, mouse; conditions: prenatal start
Description: Treatment of the mothers continued throughout lactation and was maintained in the pups after weaning. Mice were killed at 10 months of age. […] The average aortic wall thickness for untreated wild-type animals was smaller than that in placebo-treated Fbn1C1039G/+ mice (P<0.0001) but was indistinguishable from that in losartan-treated Fbn1C1039G/+ mice (P=0.24, FIG. 20E).

[4] = system: TGFβ signaling cascade (TSP1, pSmad2, periostin); test: Immunofluorescent analysis of proteins downstream of angiotensin II type 1 receptor in mdx muscle; format: in vivo, mouse; conditions: monopotassium salt
Method: Immunofluorescent studies were performed as previously described (Cohn, R. D. et al. (2002) Cell 110, 639-48). […] The following antibodies were used in this study: goat polyclonal anti-pSmad 2/3, rabbit polyclonal anti c-met and rabbit polyclonal anti-myogenin (all from Santa Cruz Biotechnology Inc.); rabbit polyclonal anti-pSmad2 (#3104, Cell Signal) rat polyclonal anti-lamininyl, rabbit polyclonal anti-dystrophin, rabbit polyclonal antithrombospondin-1 and rabbit polyclonal anti-periostin (all from Abcam); rabbit polyclonal anti-fibrillin-1 (pAb 9543) (Judge, D. P. et al. (2004) J Clin Invest 114, 172-81); goat polyclonal anti-vimentin (Sigma) and, mouse monoclonal anti-beta-sarcoglycan mouse monoclonal anti-developmental myosin (Novocastra). Anti a-dystroglycan antibody IIH6 was generously supplied by Dr. Kevin Campbell, Iowa. Secondary Alexa fluor donkey anti-rabbit, anti-rat, anti mouse IgM and IgG1 and anti-goat conjugated antibodies (Molecular probes) were applied for 1 hour at room temperature. Nuclei were stained with DAPI for 5 minutes, and inverted coverslips were mounted onto glass slides using Cytoseal (Vector Laboratories).
It has recently been shown that thrombospondin-1 (TSP1) acts as a potent mediator of angiotensin II induced TGF-beta activation via AT I R (Zhou Y, et al. (2006) Biochem Biophys Res Commun. 339, 633-641). […] Therefore, the expression of dystrophin, a-dystroglycan and R-sarcoglycan in losartan-treated and untreated mdx mice was investigated.

Fbn1mgR/mgR mice = test: Forelimb grip strength and fatigue in Fbn1mgR/mgR mice; format: in vivo, mouse; conditions: 5 months of losartan, untreated 28±2.5, wild-type 3±0.8
Method: (§2) Mice were continued on oral therapy for 6 months and sacrificed. […] Age-matched wild-type and mdx mice (placebo-treated) served as a control group. After 6 months of treatment, forelimb and hindlimb grip strength was assessed using an automated grip strength meter (Columbus Instruments, Columbus, Ohio). The experiments for forelimb and hindlimb grip strength testing were conducted at different days allowing for a minimum recovery period of 10 days. Total peak force (in Newtons) was determined by an electronic strain gauge as previously described and corrected for body weight (Wagner, K. R., et al. (2002) Ann Neurol 52, 832-6). Five measurements within 2 minutes were taken from each animal. The three highest measurements for each animal were averaged to give the strength score. The degree of fatigue was calculated by comparing the first two pulls to the last two pulls with the decrement between pulls 1+2 and pulls 4+5 providing a measure of fatigue. Similarly, functional measurements were performed in 6 month old fibrillin-1 deficient mice (Fbn1^mgR) (Pereira, L. et al. (1997) Nat Genet. 17, 218-22) after 5 months of treatment.

C1039G/+ mice = test: Aortic root growth by echocardiography in C1039G/+ mice, 4 months of treatment; format: in vivo, mouse
Method: as §1

mdx mice = test: Long-term losartan in mdx mice: fibrosis and centrally located nuclei in diaphragm and gastrocnemius; format: in vivo, mouse
Method: as §2
For morphometric analyses, skeletal muscle was flash frozen in cooled isopentane and mounted in Tragacanth (Sigma Aldrich, USA). Subsequently, 10 μm sections were stained with hematoxylin and eosin. Muscle fibers were counted in a defined area (9 mm^2) of the tibialis anterior muscle of 10-day-old wild-type (n=3) and Fbn1C1039G/C1039G mice (n=6) and fiber diameter was determined by measuring the shortest fiber axis within cross-sections of the tibialis anterior muscle, counting a total of 850-1500 fibers. The cross sectional area of undamaged and regenerating myofibers of the tibialis anterior muscle from wild-type and Fbn1^C1039G/+ mice was expressed as a distribution of the percentage of the total number of myofibers analyzed (850-1500) (Horsley, V. et al (2003) Cell 113, 483-94). Sections of skeletal muscle were taken along the same anatomical region of the mid-belly of the tibialis anterior muscle. The number of c-met, M-cadherin- and myogeninpositive cells in 50 fields of the tibialis anterior muscle mid-belly area was scored using the x40 objective. At least six animals per genotype were scored and all analyses were performed by investigators blinded to genotype and treatment group. All images were taken using an Eclipse E400 microscope (Nikon Inc.) and cross-sectional area measurements were determined using IPLAB software (Scanalytics, Fairfax, Va.). Neonatal myosin-positive fibers after cardiotoxin challenge were quantified by counting 900-1240 fibers per toxin-challenged muscle (n=4). For quantification of fibrotic tissue formation in toxin challenged mice (n=4), immunofluorescent staining for vimentin was performed. Five sections throughout the entire tibialis anterior muscle were analyzed at low magnification and vimentin positive areas were calculated as a percentage of the total muscle area using the NIH Scion image software, public domain. Similarly, van-Gieson and vimentin stained sections were used to delineate the percentage of fibrotic versus total muscle area in diaphragm and gastrocnemius of long-term losartan-treated, placebo-treated mdx and wild-type mice (n=6 each group) using the NIH Scion software. For evaluation of percent centrally located nuclei a total of 1100-1300 muscle fibers per diaphragm of each mouse (n=6, each group) and a total of 1900-2200 muscle fibers per gastrocnemius of each mouse (n=6, each group) were calculated.

[5] = 10 months of treatment, monopotassium salt

`CCCCc1nc(Cl)c(CO)n1Cc1ccc(-c2ccccc2-c2nnn[nH]2)cc1.[K]` [losartan, 2-butyl-4-chloro-1-[p-(o-1H-tetrazol-5-ylphenyl)benzyl]imidazole-5-methanol monopotassium salt] was tested, and the “Response of aortic growth in patients” value ([1]; listed as Losartan) was “effective”, the “Response of aortic growth in patients” value [1] was “remarkable response” and the Mean linear intercept (Fbn1C1039G/+ mice [2]; losartan from 7 weeks of age, 6 months, placebo 84.3±15, wild-type 41.3±5) was 53.9±12 μm. The “Distal airspace caliber / alveolar septation, in words” value (Fbn1C1039G/+ mice [2]; listed as Losartan) was “rescued; also recorded: normalization of the caliber of the distal airspace”, the “Distal airspace caliber / alveolar septation, in words” value (Fbn1C1039G/+ mice [2]) was “reduced” and the Aortic dilatation (Fbn1C1039G/+ mice [3]; 10 months) was “indistinguishable from wild-type littermates”. For the same compound, the “Aortic wall architecture score” value (Fbn1C1039G/+ mice [3]; [5]) was “normalized; also recorded: improvement”, the “Average aortic wall thickness” value (Fbn1C1039G/+ mice [3]; [5]) was “indistinguishable; also recorded: full normalization of wall thickness” and the “Expression of thrombospondin-1 (TSP1)” value ([4]; mdx diaphragm and other muscles) was “greatly reduced expression of TSP1”. For the same compound, the “Dystrophin, a-dystroglycan, sarcoglycan expression / ubiquitin mediated proteolysis” value ([4]; mdx mice) was “did not have any impact; also recorded: absent”, the “Nuclear accumulation of pSmad2 and sarcolemmal expression of periostin” value ([4]; mdx mice) was “did not show any significant nuclear accumulation of pSmad2 or sarcolemmal expression of periostin; also recorded: diminished” and the Fatigue (Fbn1mgR/mgR mice) was 9%±1.8. The “Aortic growth during the 4 months of treatment” value (C1039G/+ mice; C1039G/+ mice from 7 weeks of age, losartan 50 mg/kg or propranolol 40 mg/kg, aortic root, echo, placebo 0.44±0.09) was 0.03±0.07 mm, the “Aortic growth / protection, in words” value (C1039G/+ mice; C1039G/+ mice, compared with wild-type or with losartan) was “indistinguishable from that seen in wild-type mice” and the “Muscle fibers containing centrally located nuclei, diaphragm and gastrocnemius, in words” value (mdx mice; 6 months of losartan) was “increased percentage”. The “Centrally located nuclei, gastrocnemius” value (mdx mice; 6 months of losartan, mdx 25±5, wild-type 2±0.5) was 36%±+6, the “Fibrotic area, diaphragm” value (mdx mice; 6 months of losartan, mdx 32±5, wild-type 4±1) was 18%±4 and the “Percentage of centrally located nuclei, diaphragm” value (mdx mice; 6 months of losartan, mdx 35±5, wild-type 2±0.5) was 48%±6. For the same compound, the “Fibrosis, gastrocnemius” value (mdx mice; 6 months of losartan, mdx 75±6.4, wild-type 4±2) was 89%±5.8 and the “Myopathic disease progression / steady-state architecture in mdx mice” value (mdx mice; long-term losartan, 9 month-old mdx mice, monopotassium salt) was “significant attenuation of disease progression; also recorded: improved steady-state architecture; also recorded: attenuates myopathic disease progression”.
